These results are taken from US12390440B2, “Immunomodulating trifluoromethyl-aminal azalides” (Zoetis Services LLC, priority 2020, dated 2025).

Like-named read-outs stand apart in the source and are kept apart here.

Series [1] has as its system BRD pathogens, M. haemolytica and P. multocida. Nature of the series: MIC screening panel, BRD pathogens (CLSI broth micro-dilution). Background: Broth dilution looks for growth in wells or tubes with falling amounts of substance.
The test system of series [2] is TNF-α. Kind of series: Bovine whole blood assay, LPS-induced TNF-α. The format is cell-based. The following applies: Bos taurus, fresh whole bovine blood, LPS 1 μg/mL. Here is the method:
(§1) (protected from light) for 30 minutes.

Series [3] deals with IL-1β. Kind of series: Bovine whole blood assay, IL-1β.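 Note: compound concentration at which rising IL-1β release signals cytotoxicity.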 The format is cell-based. The following applies: overstimulation of IL-1β, perceived cellular toxicity concentration. Here is the method: as §1

The term MIC denotes the lowest concentration that inhibits growth of the organism. Regarding `CC[C@H]1OC(=O)[C@H](C)[C@@H](O[C@H]2C[C@@](C)(OC)[C@](O)(CNCCn3ccccc3=O)[C@H](C)O2)[C@H](C)[C@@H](O[C@@H]2O[C@H](C)C[C@H]3[C@H]2OC(C(F)(F)F)N3C)[C@](C)(O)C[C@@H](C)CN[C@H](C)[C@@H](O)[C@]1(C)O` (stereo partly drawn) [Example A-19, (2R,3S,4R,5R,8R,10R,11R,12S,13S,14R)-11-(((3aR,4S,6R,7aS)-1,6-dimethyl-2-(trifluoromethyl)hexahydro-2H-pyrano[4,3-d]oxazol-4-yl)oxy)-2-ethyl-3,4,10-trihydroxy-13-(((2R,4R,5S,6S)-5-hydroxy-4-methoxy-4,6-dimethyl-5-(((2-(2-oxopyridin-1(2H)-yl)ethyl)amino)methyl)tetrahydro-2H-pyran-2-yl)oxy)-3,5,8,10,12,14-hexamethyl-1-oxa-6-azacyclopentadecan-15-one], in series [1] (read-out: MIC flag (*) at Ex #), the minimal inhibitory concentration (MIC) is less than 64 µg/mL.

Turning to `CC[C@H]1OC(=O)[C@H](C)[C@@H](O[C@H]2C[C@@](C)(OC)[C@@H](O)[C@H](C)O2)[C@H](C)[C@@H](O[C@@H]2O[C@H](C)C[C@H]3[C@H]2OC(C(F)(F)F)N3C)[C@](C)(O)C[C@@H](C)CN(C)[C@H](C)[C@@H](O)[C@]1(C)O` (stereo partly drawn) [Example C-1, (2R,3S,4R,5R,8R,10R,11R,12S,13S,14R)-11-(((3aR,4S,6R,7aS)-1,6-dimethyl-2-(trifluoromethyl)hexahydro-2H-pyrano[4,3-d]oxazol-4-yl)oxy)-2-ethyl-3,4,10-trihydroxy-13-(((2R,4R,5S,6S)-5-hydroxy-4-methoxy-4,6-dimethyltetrahydro-2H-pyran-2-yl)oxy)-3,5,6,8,10,12,14-heptamethyl-1-oxa-6-azacyclopentadecan-15-one], in series [1] (read-out: MIC flag (*) at Example #), the MIC is less than 64 µg/mL.

Usually IC50 stands for the midpoint of a concentration-inhibition curve. In series [2], `CC[C@H]1OC(=O)[C@H](C)[C@@H](O[C@H]2C[C@@](C)(OC)[C@](O)(CNCCS(N)(=O)=O)[C@H](C)O2)[C@H](C)[C@@H](O[C@@H]2O[C@H](C)C[C@H]3[C@H]2OC(C(F)(F)F)N3C)[C@](C)(O)C[C@@H](C)CN[C@H](C)[C@@H](O)[C@]1(C)O` (stereo partly drawn) [Example A-20, 2-((((2S,3S,4R,6R)-6-(((2R,3S,4R,5R,8R,10R,11R,12S,13S,14R)-11-(((3aR,4S,6R,7aS)-1,6-dimethyl-2-(trifluoromethyl)hexahydro-2H-pyrano[4,3-d]oxazol-4-yl)oxy)-2-ethyl-3,4,10-trihydroxy-3,5,8,10,12,14-hexamethyl-15-oxo-1-oxa-6-azacyclopentadecan-13-yl)oxy)-3-hydroxy-4-methoxy-2,4-dimethyltetrahydro-2H-pyran-3-yl)methyl)amino)ethane-1-sulfonamide] had an IC50 of 141 µM. In series [3], the “IL-1β OS of LPS” value is 100 µM.

Take `CCCNC[C@]1(O)[C@H](C)O[C@@H](O[C@H]2[C@H](C)[C@@H](O[C@@H]3O[C@H](C)C[C@H]4[C@H]3OC(C(F)(F)F)N4C)[C@](C)(O)C[C@@H](C)CN(C)[C@H](C)[C@@H](O)[C@](C)(O)[C@@H](CC)OC(=O)[C@@H]2C)C[C@@]1(C)OC` (stereo partly drawn) [Example A-26, (2R,3S,4R,5R,8R,10R,11R,12S,13S,14R)-11-(((3aR,4S,6R,7aS)-1,6-dimethyl-2-(trifluoromethyl)hexahydro-2H-pyrano[4,3-d]oxazol-4-yl)oxy)-2-ethyl-3,4,10-trihydroxy-13-(((2R,4R,5S,6S)-5-hydroxy-4-methoxy-4,6-dimethyl-5-((propylamino)methyl)tetrahydro-2H-pyran-2-yl)oxy)-3,5,6,8,10,12,14-heptamethyl-1-oxa-6-azacyclopentadecan-15-one]: the MIC in series [1] (read-out: MIC flag (*) at Ex #) is less than 64 µg/mL.

With `CCNC[C@]1(O)[C@H](C)O[C@@H](O[C@H]2[C@H](C)[C@@H](O[C@@H]3O[C@H](C)C[C@H]4[C@H]3OC(C(F)(F)F)N4C)[C@](C)(O)C[C@@H](C)CN[C@H](C)[C@@H](O)[C@](C)(O)[C@@H](CC)OC(=O)[C@@H]2C)C[C@@]1(C)OC` (stereo partly drawn) [Example A-5, (2R,3S,4R,5R,8R,10R,11R,12S,13S,14R)-11-(((3aR,4S,6R,7aS)-1,6-dimethyl-2-(trifluoromethyl)hexahydro-2H-pyrano[4,3-d]oxazol-4-yl)oxy)-2-ethyl-13-(((2R,4R,5S,6S)-5-((ethylamino)methyl)-5-hydroxy-4-methoxy-4,6-dimethyltetrahydro-2H-pyran-2-yl)oxy)-3,4,10-trihydroxy-3,5,8,10,12,14-hexamethyl-1-oxa-6-azacyclopentadecan-15-one], in series [2], inhibition was half-maximal at 5 µM (IC50). Besides, the “IL-1β OS of LPS” value in series [3] turned out to be 5 µM.

For `CC[C@H]1OC(=O)[C@H](C)[C@@H](O[C@H]2C[C@@](C)(OC)[C@](O)(CNCC3CCN(C(C)=O)CC3)[C@H](C)O2)[C@H](C)[C@@H](O[C@@H]2O[C@H](C)C[C@H]3[C@H]2OC(C(F)(F)F)N3C)[C@](C)(O)C[C@@H](C)CN[C@H](C)[C@@H](O)[C@]1(C)O` (stereo partly drawn) [Example A-18, (2R,3S,4R,5R,8R,10R,11R,12S,13S,14R)-13-(((2R,4R,5S,6S)-5-((((1-acetylpiperidin-4-yl)methyl)amino)methyl)-5-hydroxy-4-methoxy-4,6-dimethyltetrahydro-2H-pyran-2-yl)oxy)-11-(((3aR,4S,6R,7aS)-1,6-dimethyl-2-(trifluoromethyl)hexahydro-2H-pyrano[4,3-d]oxazol-4-yl)oxy)-2-ethyl-3,4,10-trihydroxy-3,5,8,10,12,14-hexamethyl-1-oxa-6-azacyclopentadecan-15-one], the minimal inhibitory concentration (MIC) in series [1] (read-out: MIC flag (*) at Ex #) was less than 64 µg/mL.

`CC[C@H]1OC(=O)[C@H](C)[C@@H](O[C@H]2C[C@@](C)(OC)[C@](O)(CNCCS(=O)(=O)N(C)C)[C@H](C)O2)[C@H](C)[C@@H](O[C@@H]2O[C@H](C)C[C@H]3[C@H]2OC(C(F)(F)F)N3C)[C@](C)(O)C[C@@H](C)CN[C@H](C)[C@@H](O)[C@]1(C)O` (stereo partly drawn) [Example A-13, 2-((((2S,3S,4R,6R)-6-(((2R,3S,4R,5R,8R,10R,11R,12S,13S,14R)-11-(((3aR,4S,6R,7aS)-1,6-dimethyl-2-(trifluoromethyl)hexahydro-2H-pyrano[4,3-d]oxazol-4-yl)oxy)-2-ethyl-3,4,10-trihydroxy-3,5,8,10,12,14-hexamethyl-15-oxo-1-oxa-6-azacyclopentadecan-13-yl)oxy)-3-hydroxy-4-methoxy-2,4-dimethyltetrahydro-2H-pyran-3-yl)methyl)amino)-N,N-dimethylethane-1-sulfonamide] yielded an IC50 in series [2] of 18 µM. For the same compound, in series [3], the “IL-1β OS of LPS” value was 40 µM.

In series [2], `CC[C@H]1OC(=O)[C@H](C)[C@@H](O[C@H]2C[C@@](C)(OC)[C@](O)(CNCCOCCO)[C@H](C)O2)[C@H](C)[C@@H](O[C@@H]2O[C@H](C)C[C@H]3[C@H]2OC(C(F)(F)F)N3C)[C@](C)(O)C[C@@H](C)CN[C@H](C)[C@@H](O)[C@]1(C)O` (stereo partly drawn) [Example A-16, (2R,3S,4R,5R,8R,10R,11R,12S,13S,14R)-11-(((3aR,4S,6R,7aS)-1,6-dimethyl-2-(trifluoromethyl)hexahydro-2H-pyrano[4,3-d]oxazol-4-yl)oxy)-2-ethyl-3,4,10-trihydroxy-13-(((2R,4R,5S,6S)-5-hydroxy-5-(((2-(2-hydroxyethoxy)ethyl)amino)methyl)-4-methoxy-4,6-dimethyltetrahydro-2H-pyran-2-yl)oxy)-3,5,8,10,12,14-hexamethyl-1-oxa-6-azacyclopentadecan-15-one] displayed an IC50 of 28 µM. Also, the “IL-1β OS of LPS” value in series [3] was found to be 40 µM.

With `CC[C@H]1OC(=O)[C@H](C)[C@@H](O[C@H]2C[C@@](C)(OC)[C@](O)(CNCCC(=O)N(C)C)[C@H](C)O2)[C@H](C)[C@@H](O[C@@H]2O[C@H](C)C[C@H]3[C@H]2OC(C(F)(F)F)N3C)[C@](C)(O)C[C@@H](C)CN[C@H](C)[C@@H](O)[C@]1(C)O` (stereo partly drawn) [Example A-17, 3-((((2S,3S,4R,6R)-6-(((2R,3S,4R,5R,8R,10R,11R,12S,13S,14R)-11-(((3aR,4S,6R,7aS)-1,6-dimethyl-2-(trifluoromethyl)hexahydro-2H-pyrano[4,3-d]oxazol-4-yl)oxy)-2-ethyl-3,4,10-trihydroxy-3,5,8,10,12,14-hexamethyl-15-oxo-1-oxa-6-azacyclopentadecan-13-yl)oxy)-3-hydroxy-4-methoxy-2,4-dimethyltetrahydro-2H-pyran-3-yl)methyl)amino)-N,N-dimethylpropanamide], in series [1] (read-out: MIC flag (*) at Ex #), the MIC was less than 64 µg/mL.

Consider `CC[C@H]1OC(=O)[C@H](C)[C@@H](O[C@H]2C[C@@](C)(OC)[C@](O)(CNCc3ncc[nH]3)[C@H](C)O2)[C@H](C)[C@@H](O[C@@H]2O[C@H](C)C[C@H]3[C@H]2OC(C(F)(F)F)N3C)[C@](C)(O)C[C@@H](C)CN[C@H](C)[C@@H](O)[C@]1(C)O` (stereo partly drawn) [Example A-11, (2R,3S,4R,5R,8R,10R,11R,12S,13S,14R)-13-(((2R,4R,5S,6S)-5-((((1H-imidazol-2-yl)methyl)amino)methyl)-5-hydroxy-4-methoxy-4,6-dimethyltetrahydro-2H-pyran-2-yl)oxy)-11-(((3aR,4S,6R,7aS)-1,6-dimethyl-2-(trifluoromethyl)hexahydro-2H-pyrano[4,3-d]oxazol-4-yl)oxy)-2-ethyl-3,4,10-trihydroxy-3,5,8,10,12,14-hexamethyl-1-oxa-6-azacyclopentadecan-15-one], for which half-maximal inhibition in series [2] (IC50) was put at 101 µM. In addition, the “IL-1β OS of LPS” value in series [3] was determined as 40 µM. For the same compound, the MIC in series [1] (read-out: MIC flag (*) at Ex #) is less than 64 µg/mL.

In series [2], `CC[C@H]1OC(=O)[C@H](C)[C@@H](O[C@H]2C[C@@](C)(OC)[C@](O)(CNCCNC(C)=O)[C@H](C)O2)[C@H](C)[C@@H](O[C@@H]2O[C@H](C)C[C@H]3[C@H]2OC(C(F)(F)F)N3C)[C@](C)(O)C[C@@H](C)CN[C@H](C)[C@@H](O)[C@]1(C)O` (stereo partly drawn) [Example A-22, N-(2-((((2S,3S,4R,6R)-6-(((2R,3S,4R,5R,8R,10R,11R,12S,13S,14R)-11-(((3aR,4S,6R,7aS)-1,6-dimethyl-2-(trifluoromethyl)hexahydro-2H-pyrano[4,3-d]oxazol-4-yl)oxy)-2-ethyl-3,4,10-trihydroxy-3,5,8,10,12,14-hexamethyl-15-oxo-1-oxa-6-azacyclopentadecan-13-yl)oxy)-3-hydroxy-4-methoxy-2,4-dimethyltetrahydro-2H-pyran-3-yl)methyl)amino)ethyl)acetamide] yielded an IC50 of 62 µM. Moreover, the “IL-1β OS of LPS” value in series [3] came to 40 µM. In series [1] (read-out: MIC flag (*) at Ex #), the minimal inhibitory concentration (MIC) is less than 64 µg/mL.
